# In PubChem BioAssay AID977622 (Broad Institute, 2014):
# Results filed as inconclusive are left out. Activity calls are given as the source filed them.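 The calls were made as follows: active = Green signal of the normal strain falls at least twice as much as red signal of the resistant mutant, with overall culture growth loss under a set limit; inconclusive = no clear call, values can overlap the other calls; inactive = the rest.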
# How the values were obtained:
# [1] = system: E. coli WT ribosome GFP fluorescence, mixed culture, 24 h; assay: wild-type E. coli growth inhibition versus h38 humanized strain – h38 mutant RFP, wild-type GFP, cherry-pick, dose response (AID 977622)
# [2] = system: E. coli h38 humanized mutant ribosome RFP fluorescence, mixed culture, 24 h; assay: as above; conditions: measured here: h38 humanized mutant RFP strain
# [3] = E. coli mixed culture, 24 h, measured here: total growth OD600
SMILES,AC50 [1],"AC50 [1, 3] [µM]",AC50 [2] [µM]
CCc1cc2cc(OC)ccc2nc1SCC(=O)Nc1cc(OC)c(OC)cc1C(=O)O,> 100 µM (inactive),36.3,> 100
O=C(Nc1ccncc1)c1ccc(S(=O)(=O)Nc2ccccc2)cc1,> 100 µM (inactive),–,> 100
Cc1cccc(Nc2nc(-c3ccc(F)cc3)cs2)n1,> 100 µM (inactive),> 100,> 100
Cc1ccccc1CSCC(=O)Nc1ccccc1F,–,–,> 100
COc1ccc2oc(C)c(C(=O)c3ccccc3)c2c1,> 100 µM (inactive),48.5,> 100
O=C(Nc1cccc(Cl)c1)c1ccc(S(=O)(=O)NCC2CCCO2)cc1 (stereo not given),> 100 µM (inactive),52.5,43.4
CC(C)n1nnnc1C1c2ccccc2C(=O)N1CCOc1ccccc1 (stereo not given),–,> 100,3.86
CC(C)(C)S(=O)(=O)Cc1nc(-c2ccc(Cl)c(Cl)c2)cs1,> 100 µM (inactive),> 100,> 100
NS(=O)(=O)c1cccc(NC(=O)CSc2nc3ccccc3n2-c2ccccc2)c1,> 100 µM (inactive),36,> 100
CN(C)c1ccc(-c2nnn(Cc3ccccc3Br)n2)cc1,> 100 µM (inactive),–,> 100
Cc1nc([N+](=O)[O-])c(Br)n1CC(=O)c1ccc(F)cc1,> 100 µM (inactive),–,4.58
O=C(Nc1ccc(C(=O)c2ccccc2)cc1)c1ccccc1,–,–,> 100
NC(=O)c1cccnc1Oc1ccc(Cl)cc1Cl,> 100 µM (inactive),–,> 100
CC(=O)Nc1cccc(OCc2ccc([N+](=O)[O-])cc2)c1,–,–,> 100
N#Cc1cccc(-c2ccc3c(c2)[C@@H]2[C@@H](CCN2S(=O)(=O)c2cccc(F)c2)[C@H](CO)N3)c1,> 100 µM (inactive),–,> 100
Nc1c(Cl)cc(C2=NCCn3nc4ccccc4c32)cc1Cl,> 100 µM (inactive),41.6,50.5
Cc1ccc(C(=O)Nc2cccc3[nH]c(C(F)(F)F)nc23)cc1,–,> 100,> 100
CN(C)CCCN(C(=O)CCOc1ccccc1)c1nc2c(F)cccc2s1,–,–,> 100
O=S1(=O)N[C@H](Cc2ccccc2)COc2cccc(N3CCC[C@H]3CO)c21,> 100 µM (inactive),–,> 100
Cc1ccccc1S(=O)(=O)N1C[C@H]2CON(C)[C@H]2C[C@H]1c1cccc(-c2ccc(C#N)cc2)c1,–,–,> 100
O=C1OC[C@@H]2CCCN2C(=O)[C@@H](CC(=O)N(CCO)Cc2ccccc2)C/C=C\C[C@H]1Cc1ccc(F)cc1,–,> 100,> 100

SMILES,AC50 [1],"AC50 [1, 3] [µM]",AC50 [2] [µM]
COc1ccc(OC)c(S(=O)(=O)Nc2cccc3ccc(O)cc23)c1,> 100 µM (inactive),> 100,> 100
O=S(=O)(Nc1ccc(-c2cnco2)cc1)c1ccccc1,> 100 µM (inactive),–,> 100
CCn1cc(Br)c(C(=O)Nc2ccc(C(=O)OC(C)C)cc2)n1,> 100 µM (inactive),–,> 100
COc1ccc(OC)c(C(=O)COC(=O)c2ccc([N+](=O)[O-])o2)c1,> 100 µM (inactive),> 100,> 100
CS(=O)(=O)c1ccc(Cl)c(NC(=O)CSc2nncn2-c2ccccc2)c1,> 100 µM (inactive),–,> 100
COc1ccccc1NC(=O)COC(=O)Cc1c[nH]c2ccccc12,–,> 100,> 100
COC(=O)c1c(-c2ccc(OC)cc2)sc2cc(OC)c(OC)cc12,> 100 µM (inactive),45.8,> 100
C=CCn1c(C)cc(C(=O)CSc2nnc(C3CC3)n2C2CC2)c1C,–,> 100,> 100
O=S(=O)(NOCc1ccc(Cl)cc1)c1ccc(Cl)cc1,–,–,52
O=C(O)CSc1nnc(-c2ccc(Cl)cc2Cl)n1-c1ccc(Br)cc1,> 100 µM (inactive),> 100,> 100
CCCc1c(C(=O)Nc2ccc(OC)cc2)cnn1-c1ccccc1,> 100 µM (inactive),–,9.68
COc1cccc(-c2ccc(NC(=O)C3CCCN(Cc4cnn(C(C)C)c4)C3)cc2)c1 (stereo not given),–,–,> 100
CN1C(=O)c2cc(NC(=O)c3cccc(F)c3)ccc2OC[C@H]2O[C@@H](CC(=O)NCC3CCCCC3)CC[C@@H]21,–,–,> 100
COc1cccc(NC(=O)C2CCC(CNS(=O)(=O)c3cccs3)CC2)c1 (stereo not given),> 100 µM (inactive),–,> 100
C[C@H]1CN([C@@H](C)CO)C(=O)c2c(c3ccccc3n2C)-c2ccccc2CO[C@@H]1CN(C)Cc1ccncc1,–,–,> 100
CCOc1ccc(C(C)=O)cc1CN1C(=O)NC2(CCCCCCC2)C1=O,–,–,> 100
Nc1ccc(C(=O)OCCc2ccccc2)cc1,> 100 µM (inactive),–,–
O=C(O)c1ccc2c(c1)N(Cc1ccc(F)cc1)C(=O)c1ccccc1S2,> 100 µM (inactive),–,–
Cc1c(Cc2ccccc2)sc(NC(=O)Cc2ccccc2)c1C(N)=O,> 100 µM (inactive),–,–
Cc1nnc2sc(SCC(=O)Nc3ccc(Br)cc3)nn2c1=O,> 100 µM (inactive),> 100,–
CCCCCCCNC(=O)c1ccc(N2CCC3(CC2)OCCO3)c([N+](=O)[O-])c1,–,40.4,–

SMILES,AC50 [1],"AC50 [1, 3] [µM]",AC50 [2] [µM]
Cc1ccccc1S(=O)(=O)NC(=O)C1(C)CCN1C(=O)C1(c2ccc(Cl)cc2)CC1 (stereo not given),> 100 µM (inactive),–,–
Cc1nn(-c2ccc(N3CCCCC3)nn2)c(C)c1CCC(=O)Nc1ccc(F)cc1,> 100 µM (inactive),–,–
Cc1ccc(-c2c[n+](CC(=O)OCc3ccccc3)c3n2CCC3)cc1,> 100 µM (inactive),–,–
CN1C(=O)c2cc(NC(=O)c3cccc(F)c3)ccc2OC[C@H]2O[C@@H](CC(=O)N3CCc4ccccc4C3)CC[C@@H]21,> 100 µM (inactive),–,–
CNC(=O)c1ccsc1NC(=O)c1ccc(S(=O)(=O)N2CCc3ccccc32)cc1,–,> 100,–
Cc1cc(C(=O)Nc2cccc3c2O[C@H](CN(C)S(=O)(=O)c2ccc(Cl)cc2)[C@H](C)CN([C@H](C)CO)C3=O)n(C)n1,> 100 µM (inactive),27.8,–
O=C(CSc1nnc(COc2cccc3cccnc23)o1)c1ccc(F)cc1,–,> 100,–
CN1OC[C@@H]2CN(C(=O)c3ccco3)[C@H](c3ccc(-c4ccc(C#N)cc4)cc3)C[C@@H]21,–,> 100,–
Cc1ccc(NC(=O)c2ccc([N+](=O)[O-])o2)c(C)c1,> 100 µM (inactive),–,–
COc1ccc(CNC(=O)c2sc3nc4c(c(C(F)(F)F)c3c2N)CCC4)cc1OC,–,> 100,–
Cc1cc(SCC(=O)c2cccs2)n2nc(C)c(-c3ccc(Cl)cc3)c2n1,–,–,> 100
O=C(CC(=O)c1cccs1)c1ccncc1,> 100 µM (inactive),> 100,–
Cc1cccc(NC(=O)c2c(C)nn(-c3ccccc3)c2Cl)c1,> 100 µM (inactive),–,–
CN1c2ccc(C#Cc3cccnc3)cc2[C@@H]2[C@@H](CCN2C(=O)c2cccc(F)c2)[C@H]1CO,> 100 µM (inactive),–,–
FC(F)(F)c1ccc(Cl)c(-n2c(Cc3cccs3)n[nH]c2=S)c1,> 100 µM (inactive),–,–
CCCN(CC1CC1)C(=O)CSc1ncnc2sccc12,> 100 µM (inactive),–,–
CCN(C(=O)c1ccnc(C(C)(C)C)c1)c1ccccc1,> 100 µM (inactive),–,–
COc1ccc(CNS(=O)(=O)c2ccc3c(c2)NC(=O)C(C)S3)cc1 (stereo not given),> 100 µM (inactive),–,–
O=C(c1cc2cc(F)ccc2[nH]1)N1CCN(Cc2ccc3c(c2)OCO3)CC1,> 100 µM (inactive),20.8,–
CC(=O)OC(COc1cccc(C)c1)Cn1cnc2ccccc21 (stereo not given),> 100 µM (inactive),50.7,–
CC(CCC(=O)O)C1CC[C@@]2(C)C3C(=O)CC4C(C)(C)C(O)CC[C@]4(C)C3C(=O)C[C@]12C (stereo not given in full),> 100 µM (inactive),> 100,–

SMILES,AC50 [1],"AC50 [1, 3] [µM]",AC50 [2] [µM]
CNC(=O)c1ccsc1NC(=O)c1ccc2c(c1)CCCC2,> 100 µM (inactive),> 100,–
CC(C)=C(c1ccc(Cl)cc1)c1c(N)ncnc1N,–,–,> 100
Cc1ccc(C(=O)Nc2ccc(C)c(S(=O)(=O)Nc3ccccc3Cl)c2)s1,> 100 µM (inactive),43.1,–
O=C(NCCCn1ccnc1)c1sc2cc([N+](=O)[O-])ccc2c1Cl,–,> 100,–
COc1cccc(C(=O)NC2CC3CCCC(C2)N3S(=O)(=O)c2ccccc2)c1 (stereo not given),> 100 µM (inactive),41.4,–
COC(=O)c1ccc(CN2CCCC(CO)(Cc3ccccc3F)C2)cc1 (stereo not given),> 100 µM (inactive),–,–
O=C1c2ccccc2C(=O)N1CCc1c[nH]c2ccccc12,> 100 µM (inactive),> 100,–
COc1ccc(C(=O)CSc2nc3ccccc3n2CC(=O)c2ccccc2)cc1,> 100 µM (inactive),–,–
CCCN(CC(=O)Nc1ccccc1C)C(=O)c1cccc(S(=O)(=O)N2CCc3ccccc3C2)c1,> 100 µM (inactive),–,–
O=C(Nc1cccc(S(=O)(=O)N2CCCCC2)c1)c1ccc(Cl)nc1,> 100 µM (inactive),–,–
CC(=O)OC1N=C(c2ccccc2Cl)c2cc(Br)ccc2NC1=O (stereo not given),–,> 100,–
O=C(Cc1cccc(NC(=O)C2CCCN(C(=O)CCc3ccccc3)C2)c1)Nc1cccc(C(=O)N2CCCC2)c1 (stereo not given),> 100 µM (inactive),–,–
Cc1cc2nc(SCC(=O)O)nc(C)c2cc1C,–,> 100,–
N#Cc1cccc(-c2ccc3c(c2)[C@H]2[C@H](CCN2C(=O)c2ccccc2F)[C@H](CO)N3)c1,> 100 µM (inactive),–,–
CCC(=O)Nc1nc2ccc(NC(=O)c3cc(OC)c(OC)c(OC)c3)cc2s1,> 100 µM (inactive),–,–
CSc1ccccc1NC(=O)c1ccccc1N(Cc1ccccc1)S(C)(=O)=O,> 100 µM (inactive),–,–
COC(=O)c1c(NC(=O)CCC(=O)O)sc(Cc2ccccc2)c1C,> 100 µM (inactive),18.8,–
Cc1ccsc1C(=O)N1CCCC(C(=O)c2cc(F)ccc2F)C1 (stereo not given),> 100 µM (inactive),> 100,–
O=C(NCCc1ccc(O)cc1)c1[nH]c(C(F)(F)F)nc1-c1ccccc1,> 100 µM (inactive),> 100,–
COc1cccc(-n2nnnc2SCC(=O)NCc2ccc3c(c2)OCO3)c1,> 100 µM (inactive),–,–
COc1ccc(CC(=O)NCc2csc(-c3cccs3)n2)cc1OC,–,> 100,–
